Measured values reported in ChEMBL document CHEMBL3046150, “Quantitative Structure-Activity Relationships of Herbicidal N-Alkyl-N-(4-substituted benzyl)-4-chloro-2-pentenamides against Echinochloa oryzicola” (J Pestic Sci, 1999).

Test: Lipophilicity, log P of the compound
Format: physicochemical
Conditions: octanol/water

logP (read-out: logP)	SMILES	logP
4.68	CC(Cl)/C=C/C(=O)N(Cc1ccc(Cl)cc1)CC(C)C (configuration not stated)	
	CC(C)Oc1cc(-n2nc(C(C)(C)C)oc2=O)c(Cl)cc1Cl [OXADIAZON]	4.78
